This note sets out measurements from patent US20240398831A1, “COMPOSITIONS COMPRISING SMALL MOLECULE REGULATORS OF TUMOR IMMUNITY AND METHODS OF USING SAME” (Duke University, priority 2021, published 2024).

The subject of assay [1] is B16F10 tumors. Briefly: B16F10 syngeneic melanoma tumor model in ovariectomized mice (tumor growth, flow cytometry). It is filed as in vivo, mouse. How it is done: (§1) Tumor models and cells. The mouse B16F10 and Yumm5.2 cell lines were purchased from American Type Culture Collection (ATCC, Manassas, VA). The mouse melanoma cell line BPD6 was established from iBP as described elsewhere (Zhao et al., Immunity 2018, 48, 147-160). B16F10 and BPD6 cells were maintained in Dulbecco's Modified Eagle's Medium (DMEM) supplemented with 8% fetal bovine serum (FBS), 0.1 mM non-essential amino acids (NEAA) and 1 mM sodium pyruvate. YuMM5.2 cells were maintained in DMEM/F12 media supplemented with 10% FBS. The cells were replated 3 times/week at a confluency of 1:10 and were kept in a 37° C. incubator at 5% CO2. For subcutaneous tumor models B16F10 (5×10^4 or 1×10^5), YuMM5.2 (5×10^5), and BPD6 (5×10^5) cells were injected into the right flank of the mice. For iBP mice, tumors were induced with a single intradermal dose of 4-hydroxytamoxifen in DMSO (150 μg/mouse). Tumors were measured thrice weekly using an electronic caliper. Tumor volumes were calculated by the formula V=L×(W×W)/2. For iBP mouse tumors, volumes were calculated by the formula V=L×B×H. For tumor growth rate studies mice were euthanized when the tumors reached a maximum size of 2000 mm^3.
(§2) Ovarlectomy and subcutaneous pellet Insertion. Ovariectomy was performed as previously described (Nelson et al., Science 2013, 342, 1094-1098). Eight days prior to tumor inoculation, 7 weeks old C57BL/6J or 5 weeks old (iBP) female mice were subjected to ovariectomy or sham surgery. Mice were anesthetized in an inhalation chamber (2% Isoflurane) and maintained in half the dose of isoflurane (1%) via nose cone throughout the surgical process. Prior to surgery, mice were administered a 5 mg/kg dose of carprofen subcutaneously. The area below the ribs was shaved with an electronic razor and the skin was sterilized by rubbing with betadine and alcohol (3× alternating). A horizontal incision was made through the skin above the ovary fat pad, followed by a vertical incision through the abdominal muscle wall. The ovary was externalized and removed using a cauterizing scissors (or returned if sham). Fat pad was replaced, and muscle walls were opposed and sutured (1-2 stitches). Following suturing, 1 drop of bupivacaine (0.25%) was added on top of the incision site. The skin was opposed, and a wound clip was placed on the incision site. This was repeated for the other ovary. The mouse was then removed from anesthesia and kept in a clean cage and monitored until conscious. The mice were monitored for recovery for 10 days.
Single cell isolation from tumors. Tumors were isolated, minced on a petri dish in media (DMEM+5% FBS), and then enzymatically digested by the addition of 100 μg/mL DNase I (D5025-150KU, Sigma-Aldrich) and 1 mg/mL collagenase (Collagenase A, Cat #10103586001, Sigma-Aldrich) for 30 mins-45 mins. For iBP models, isolated tumors were sliced into large chunks and subjected to mechanical digestion in a gentleMACS Dissociator for 30 seconds twice. Following this, tumors were digested with an enzyme cocktail containing DNase I, collagenase, and hyaluronidase (100 μg/mL) (H6254, Sigma-Aldrich) for 40 mins following a second round of mechanical digestion for 30 seconds (twice). The cells were then filtered through a 40 μm strainer to produce single cell suspensions and the enzymes were diluted by addition of additional media then spun down to remove media. Red blood cells were lysed with the addition of ACK lysis buffer (Cat #A1049201. ThermoFisher Scientific) for 4 mins at room temperature. Following red blood cell lysis, cells were washed with PBS before proceeding to flow cytometry staining or magnetic bead-based isolation.
Flow cytometry staining. Single cells suspensions (10^6 cells in 50 μL) were incubated with Live/dead fixable dead cell stain in PBS for 10 mins at 4° C. Cells were spun down at 1000×g and were incubated with anti-CD16/32 (Catalog #14-0161-85, ThermoFisher Scientific) in flow buffer (10 gms BSA in 1 L PBS+sodium azide) for 15 mins. […]

In assay [2] the test system is BPD6 tumors. As to the kind of experiment: BPD6 syngeneic melanoma tumor model in ovariectomized mice (tumor growth, flow cytometry). It is filed as in vivo, mouse.
From the text: FIGS. 18E-18G show quantification of M1 macrophages (MHCII^hi CD206^−ive), GZMB^+CD8^+ T cells, and PD1^+CD8^+ T cells in YuMM5.2 tumors from FIG. 18C (n=4). […] Vehicle+IgG (n=10, red), fulvestrant+IgG (n=15, blue), vehicle+ICB (n=15, black), and fulvestrant+ICB (n=15, brown). Black arrow indicates start of ICB treatment regimen. […] Vehicle+IgG (n=9, red), fulvestrant+IgG (n=8, blue), vehicle+ICB (n=9, black), and fulvestrant+ICB (n=10, brown). Black arrow indicates start of anti-PD1 treatment regimen. […] FIGS. 18A-18C are representative of two individual experiments. Data are expressed as mean 3 S.E.M. Significance was calculated by one-way ANOVA followed by Bonferroni's multiple correction (FIG. 18K), by Student's t test (FIG. 18L), and by log rank test (FIG. 18M) (*p<0.05, **p<0.01, and ***p<0.001).
as §1, §2
Fulvestrant treatment Mice were injected with fulvestrant (Cat #HY-13636 MedChemExpress) 2 days after tumor injection at a dose of 25 mg/kg via intramuscular route. […]
For orientation: Flow cytometry measures light scatter and fluorescence of single cells or particles in a stream.

For assay [3], the system named is YuMM5.2 cells. Briefly: Quantitative PCR of Wnt5A-β-catenin targets in melanoma tumor cells. Type of assay: cell-based, mouse.
[4] abbreviates: E2 vs placebo, ovariectomized C57BL/6J.
[5] abbreviates: fulvestrant 25 mg/kg, E2 supplemented mice.

Take 17β-estradiol [E2]: the “tumor promoting effects of E2, tumor cells co-mixed with BMDM (1:1)” value in assay [1] (BMDM from Esr1^f/f, LysMCre versus Esr1^f/f) was “significantly compromised”. In addition, the tumor growth entry in assay [1] (setting [4]) was “significantly increased”; in assay [1] (Esr1^f/f and LysMCre control mice), “increased”; in assay [1] (Esr1^f/f, LysMCre mice (myeloid ERα knockout)), “not evident”; in assay [2] (setting [4]), “significantly increased”. In addition, the “infiltration of immune cells (CD45+)” value in assay [1] (flow cytometry, E2 vs placebo) was “not impacted by treatment”. Moreover, the “percentage of Ly6C+/Ly6G+ MDSCs in tumors” value was “no changes” in assay [1] (flow cytometry, E2 vs placebo) and “no changes” in assay [2] (flow cytometry, E2 vs placebo). Besides, in assay [1] (flow cytometry, E2 vs placebo), the “ratio of intratumoral M1 (MHCII^hi CD206−) to M2 (MHCII^lo CD206+/hi) macrophages” value was “decreases”. The “expression of WNT5A-β-catenin targets” value in assay [3] (E2 (1 nM)) is given as “did not change”.

As for `C[C@]12CC[C@@H]3c4ccc(O)cc4C[C@@H](CCCCCCCCC[S+]([O-])CCCC(F)(F)C(F)(F)F)[C@H]3[C@@H]1CC[C@@H]2O` (stereo partly drawn) [fulvestrant], the tumor growth entry in assay [1] (setting [5]) is reported as “significantly reduced”; in assay [2] (PD1 sensitive model, fulvestrant alone), “slows tumor growth”; in assay [2] (setting [5]), “significantly reduced”. Also, the “intratumoral M1/M2 ratio” value in assay [2] (E2 treated mice co-treated with fulvestrant) is “increase”. In assay [3] (E2 (1 nM)+fulvestrant (100 nM)), the “expression of WNT5A-β-catenin targets” value is reported as “did not change”.
